# Measurements as given in patent publication US9023407B2, “Plant extract for treating diabetes and process for making same” (Development Center for Biotechnology, priority 2012, dated 2015).
# Marks after values point to notes of the source that are not given here.
# Experiments:
# [1] = system: Sprague-Dawley rats; experiment: Glucose tolerance test in normal rats; assay type: in vivo, rat; conditions: 10 mg/kg
# Description: Twenty-six (26) Sprague-Dawley rats were divided into four groups: the placebo group (7 rats, to be administered with 10% Tween 20), the positive control group (7 rats, to be administered with glibenclamide), the 250 mg/kg HC group (6 rats, to be administered with 250 mg/kg ethanol extract of leaves and pseudostems of Hedychium coronarium Koening ), and the 750 mg/kg HC group (6 rats, to be administered with 750 mg/kg ethanol extract of the leaves and pseudostems of Hedychium coronarium Koening ). The rats were fasted for 7 hours and then administered with 250 mg/kg ethanol extract of leaves and pseudostems of Hedychium coronarium Koening (the 250 mg/kg HC group), 750 mg/kg ethanol extract of leaves and pseudostems of Hedychium coronarium Koening (the 750 mg/kg HC group), 10 mg/kg glibenclamide (the positive control group), or 10% Tween 20 (the placebo/control group). After 30 minutes, each rat was administered with glucose at a total amount of 5 g/kg, orally (2.5 g/kg) and subcutaneously (2.5 g/kg). Blood was drawn from each rat at the intervals of 0, 30, 60, 90 and 120 minutes for the measurement of glucose (mg/DL). […]
# The test rats and procedure were as those in Example 1. However, in this example, 24 Sprague-Dawley rats were divided into four groups: the placebo group (6 rats, to be administered with water), the positive control group (6 rats, to be administered with 10 mg/kg glibenclamide), the 0.4 g/kg HC group (6 rats, to be administered with 0.4 g/kg water-ethanol extract of leaves and pseudostems of Hedychium coronarium Koening ), and the 0.8 g/kg HC group (6 rats, to be administered with 0.8 g/kg water-ethanol extract of leaves and pseudostems of Hedychium coronarium Koening ). After 30 minutes, each rat was administered with glucose at a total amount of 5 g/kg, orally (2.5 g/kg) and subcutaneously (2.5 g/kg). Blood was drawn from each animal at 30-minute intervals for the measurement of glucose (mg/DL). […]
# [2] = system: Sprague-Dawley rats with type I diabetes; experiment: Insulin resistance test in rats with type I diabetes; assay type: in vivo, rat; conditions: 0.3 U/kg insulin subcutaneous
# Description: Eighteen (18) Sprague-Dawley rats with type I diabetes were divided into three groups: the control group (6 rats, to be administered with 10% Tween 20), the insulin group (6 rats, to be subcutaneously administered with 0.3 U/kg insulin) and the insulin plus HC group (6 rats, to be subcutaneously administered with 0.3 U/kg insulin and orally administered with 1.0 g/kg of ethanol extract of leaves and pseudostems of Hedychium coronarium Koening ). The rats were fasted for 4 hours and then administered with 10% Tween 20 (the control group), 0.3 U/kg insulin (the insulin group) or 0.3 U/kg insulin plus 1.0 g/Kg of ethanol extract of leaves and pseudostems of Hedychium coronarium Koening (the insulin plus HC group). After administration of 2.5 g/kg glucose, blood was drawn from each animal at 30-minute intervals for the measurement of glucose (mg/DL).
Compound,"Concentration of blood glucose ([1]; Example 1, 0 min)","Concentration of blood glucose ([1]; Example 1, 30 min)","Concentration of blood glucose ([1]; Example 1, 60 min)","Concentration of blood glucose ([1]; Example 1, 90 min)","Concentration of blood glucose ([1]; Example 1, 120 min)","Concentration of blood glucose ([1]; Example 9, 0 min)","Concentration of blood glucose ([1]; Example 9, 30 min)","Concentration of blood glucose ([1]; Example 9, 60 min)","Concentration of blood glucose ([1]; Example 9, 90 min)","Concentration of blood glucose ([1]; Example 9, 120 min)",Concentration of blood glucose ([2]; 0 min),Concentration of blood glucose ([2]; 30 min),Concentration of blood glucose ([2]; 60 min),Concentration of blood glucose ([2]; 90 min)
"COc1ccc(Cl)cc1C(=O)NCCc1ccc(S(=O)(=O)NC(=O)NC2CCCCC2)cc1 [Glibenclamide, glibenclamide]",99 ± 2.7 mg/dL,150.7 +/− 15.2** mg/DL,121.4 +/− 10.2** mg/DL,101.6 +/− 6.7** mg/DL,83.4 +/− 2.5*** mg/DL,94.3 ± 3.8 mg/dL,173.8 +/− 14.5*** mg/DL,101.8 +/− 8.4*** mg/DL,82.7 +/− 8.1*** mg/DL,68.8 +/− 5.9*** mg/DL,,,,
"Insulin: insulin, subcutaneously administered at 0.3 U/kg",,,,,,,,,,,522.5 ± 27.1 mg/dL,695.8 +/− 18.7** mg/DL,593.3 +/− 16.2* mg/DL,486.2 +/− 9.6* mg/DL
